Key:
[1] = Plasma noribogaine glucuronide pharmacokinetics in healthy volunteers (Example 7); assay type: in vivo; settings: human plasma; for AUC0-216 / AUC0-∞ / Cmax / Tmax / t1/2: mean
Sprague-Dawley rat = test: Single dose toxicity in rats; assay type: in vivo; settings: male rats
Protocol: The objective of this study was to determine the toxicity and toxicokinetic profile of noribogaine HCl following a single oral (gavage) administration in the Sprague-Dawley rat. A single dose of 100, 300 and 800 mg/kg (achieved with doses of 400 mg/kg 3 h+/−30 min apart because of the limitations of maximum dose formulation concentration). Five male rats/group were used. […] Hypoactivity, vocalization, chewing movements, changes in respiration/posture, salivation, stimuli sensitivity, tremors, twitches and penile erection occurred prior to death. […] The NOAEL was determined to be 100 mg/kg.

Sprague-Dawley rats = test: Fourteen day repeat dose toxicity in rats; assay type: in vivo, rat
Protocol: This study was conducted to evaluate the toxicity profile of noribogaine-HCl following oral (gavage) administration to the rat for 14 days following Table 2 below:
Male and female Sprague-Dawley rats, 10/sex/group, were administered 0, 25, 50 or 100 mg/kg noribogaine HCl daily by single oral gavage for 14 days. An additional 5 rats/sex/group in the 0 (control) and 100 mg/kg groups were retained for a 28 day recovery period during which no drug was administered. Six rats/sex/group (3 rats/sex controls) were similarly dosed and sampled on study days 1 and 14 for analysis of noribogaine-HCl concentrations in the blood.

dogs = test: Fourteen day repeat dose toxicity in dogs; assay type: in vivo, dog
Protocol: The objective of this study was to determine the toxicity profile of noribogaine HCl given following oral (gavage) administration to dogs for 14 days according to the following Table 3 below:
Noribogaine HCl was administered to groups of 4 male and 4 female dogs by single oral gavage daily for 14 days at doses of 0, 0.5, 1.0 and 5.0 mg/kg/day. An additional group of 4 male and 4 female dogs received either the vehicle control or 5.0 mg/kg/day for 14 days and were held for an additional 28 days after cessation of dosing to assess recovery from any potential drug-induced changes. The study was conducted under GLP guidelines and included comprehensive examinations of clinical signs, body weight, clinical pathology parameters, ophthalmologic examinations. ECG recordings and analyses of plasma for bioanalytical measurement of drug levels at appropriate intervals during the study. At the termination of the dosing phase and at the termination of the recovery phase, all dogs were subjected to a complete post-mortem examination including gross examination of major organs and histologic examination of an extensive list of tissues. Additional sections of brain were obtained from cerebrum, cerebellus, brain stem and spinal cord and examined histologically to evaluate potential effects on brain histopathology. In addition, these sections were examined with immunohistochemical stains for GFAP for evidence of gliosis and Calbindin for a more comprehensive examination of cerebellar Purkinje cells.

[2] = Human pharmacokinetic study, single oral dose, serum levels (Example 6); assay type: in vivo; settings: fasting healthy volunteers, single oral tablet 3, 10, 30 or 60 mg
Protocol: In double blind studies, fasting healthy volunteers (6 per cohort) were treated once orally with a tablet of noribogaine HCl. In escalating cohorts, the volunteers received 3 mg, 10 mg, 30 mg or 60 mg noribogaine.

[3] = after single oral 30 mg noribogaine (n = 6)
[4] = after single oral 60 mg noribogaine (n = 6)

CC[C@H]1C[C@@H]2C[C@H]3c4[nH]c5ccc(OC6OC(C(=O)O)C(O)C(O)C6O)cc5c4CCN(C2)[C@@H]13 (some centres unmarked) [Noribogaine glucuronide, noribogaine glucuronide]
Mean half-life ([1]; 30 mg and 60 mg dose groups): 21 to 23 h
Time of peak concentrations after noribogaine dosing ([1]; 30 mg and 60 mg dose groups): 3 to 4 h
Time by which detected in all subjects ([1]; 30 mg and 60 mg noribogaine dose groups): ≤ 0.75 h
AUC0-216 [1, 3]: 25.7 ng·h/mL
AUC0-∞ [1, 3]: 25.8 ng·h/mL
Cmax [1, 3]: 1.8 ng/mL
Tmax [1, 3]: 3.0 h
t1/2 [1, 3]: 20.6 h
AUC0-216 [1, 4]: 65.0 ng·h/mL
AUC0-∞ [1, 4]: 67.1 ng·h/mL
Cmax [1, 4]: 4.1 ng/mL
Tmax [1, 4]: 3.8 h
t1/2 [1, 4]: 23.1 h
Proportion of noribogaine glucuronide Cmax and AUC relative to noribogaine ([1]; both dose groups (30 mg, 60 mg)): 3-4%

CC[C@@H]1C[C@H]2CC3c4[nH]c5ccc(O)cc5c4CCN(C2)C31.Cl [noribogaine HCl]
NOAEL (Sprague-Dawley rat; single oral gavage): 100 mg/kg
Treatment related signs (Sprague-Dawley rat; single oral gavage 100 mg/kg): did not show any treatment related signs
Rats with hypoactivity, vocalization, salivation, stimuli sensitivity, loss of limb function and lying on the cage floor persisting until Day 2 (Sprague-Dawley rat; single oral gavage 300 mg/kg): 3/5
Mortality (Sprague-Dawley rat; single oral gavage 800 mg/kg (2 x 400 mg/kg 3 h apart), approximately 2-3 h after second dose): Mortality occurred in all male rats
Effects on mortality, clinical signs, ophthalmoscopy, hematology, coagulation parameters, clinical chemistry, urinalysis, gross necropsy or histopathology (Sprague-Dawley rats; rats, 25, 50 or 100 mg/kg daily oral gavage for 14 days): no test article-related effects
Brain sections stained for GFAP or Calbindin (Sprague-Dawley rats; rats, 14 days oral gavage): No treatment-related differences in the brain
NOAEL (Sprague-Dawley rats; rats, 14 days oral gavage, highest dose tested): 100 mg/kg
Body weight change (Sprague-Dawley rats; rats, females, high dose 100 mg/kg, 14 days): −2.6%
Food consumption change (Sprague-Dawley rats; rats, males and females, high dose 100 mg/kg, 14 days): −4.7%
Body weight change (Sprague-Dawley rats; rats, males, high dose 100 mg/kg, 14 days): −5.5%
Liver weight (Sprague-Dawley rats; rats, mid- and high dose groups (50, 100 mg/kg), 14 days, not correlated with histopathologic changes, considered incidental): Minor increases in liver weight
Lacrimal gland change in recovery group (dogs; dogs, 5 mg/kg/day 14 days, then 28 days off drug): clear evidence of regeneration
Lacrimal gland changes (only target tissue) (dogs; dogs, 5 mg/kg/day, 14 days): slight to moderate atrophy and degeneration of the acinar cells
Adverse effect in clinical observations, body weights, clinical pathological parameters, ophthalmologic examinations, ECG recordings, or gross lesions at necropsy (dogs; dogs, 0.5, 1.0 and 5.0 mg/kg/day oral gavage 14 days, dosing or recovery phase): No evidence of adverse effect
Drug-induced effect in any other tissue including brain (histopathology, immunohistochemistry) (dogs; dogs, 14 days oral gavage): No evidence of drug-induced effect
NOAEL (dogs; dogs, 14 days oral gavage, based on lacrimal gland changes at 5 mg/kg/day): 1 mg/kg/day
Adverse effects [2]: no clinically relevant adverse effects were observed
Linearity of pharmacokinetic parameters [2]: All parameters were linear

From patent US20160271139A1, “METHOD FOR NON-TOXIC TREATMENT FOR DRUG WITHDRAWAL” (DEMERX, INC., priority 2013, published 2016)
